From patent US20230235084A1, “COMPOSITIONS AND METHODS FOR TARGETED PROTEIN STABILIZATION BY REDIRECTING ENDOGENOUS DEUBIQUITINASES” (THE TRUSTEES OF COLUMBIA UNIVERSITY IN THE CITY OF NEW YORK, priority 2020, published 2023)

What was measured:
[1] = test system: KCNQ1; assay: Whole-cell patch clamp of KCNQ1 currents in CHO cells; format: cell-based, human
Method: Whole-cell patch clamp electrophysiology was used to determine functionality of enDUB-O1-rescued KCNQ1 channels.
Chinese hamster ovary (CHO) cells were obtained from ATCC and cultured at 37° C. in Kaighn’s Modified Ham’s F-12K (ATCC) supplemented with 8% FBS and 100 mg/mL of penicillin-streptomycin. CHO cells were transiently transfected with desired constructs in 35 mm tissue culture dishes—KCNQ1 (0.5 µg) and nano-P2A-CFP (0.5 µg) or enDUBO1-P2A-CFP (0.5 µg) using X-tremeGENE HP (1:2 DNA/reagent ratio) according to the manufacturers’ instructions (Roche).
For potassium channel measurements, whole-cell membrane currents were recorded at room temperature in CHO cells using an EPC-10 patch-clamp amplifier (HEKA Electronics) controlled by the PatchMaster software (HEKA). A coverslip with adherent CHO cells was placed on the glass bottom of a recording chamber (0.7-1 mL in volume) mounted on the stage of an inverted Nikon Eclipse Ti-U microscope. Micropipettes were fashioned from 1.5 mm thin-walled glass and fire-polished. […] Pipette resistance was typically 1.5 MΩ when filled with internal solution. I-V curves were generated from a family of step depolarizations (-40 to +100 mV in 10 mV steps from a holding potential of -80 mV). Currents were sampled at 20 kHz and filtered at 5 kHz. Traces were acquired at a repetition interval of 10 s.

[2] = test system: CFTR; assay: Whole-cell patch clamp of CFTR currents in HEK293 cells; format: cell-based, human
Source text: A critical next step was to determine whether enDUB-U21-rescued mutant CFTR channels are functional. We focused on N1303K and 4326delTC to represent Class II and Class VI mutations, respectively. HEK293 cells expressing WT CFTR display robust forskolin-activated chloride currents that are blocked by CFTR inhibitor (FIGS. 3C and 3D), and not observed in untransfected cells (FIG. 3E). By contrast, cells expressing either N1303K or 4326delTC alone yielded no forskolin-induced currents (FIGS. 3F and 3G) consistent with their limited surface trafficking and status as disease-causing mutants.
For CFTR channel measurements, whole-cell recordings were carried out in HEK293 and FRT cells at room temperature. Internal solution contained (mM): 113 L-aspartic acid, 113 CsOH, 27 CsCl, 1 NaCl, 1 MgCl2, 1 EGTA, 10 TES, 3 MgATP (pH 7.2). External contained (in mM): 145 NaCl, 4 CsCl, 1 CaCl2, 1 MgCl2, 10 glucose, and 10 TES (pH 7.4). I-V curves were generated from a family of step depolarizations (-80 to +80 mV in 20 mV steps from a holding potential of -40 mV). CFTR currents were activated by perfusion with 10 µM forskolin. In experiments utilizing lumacaftor (3 µM), the drug was added for 24 hrs posttransfection and incubated at 37° C. Ivacaftor was used acutely at 5 µM concentration. Currents were sampled at 20 kHz and filtered at 7 kHz. Traces were acquired at a repetition interval of 10 s.

[3] = test system: BBS-CFTR-YFP; assay: Flow cytometry assay of CFTR surface density in HEK293 cells; format: cell-based, human
Source text: BBS-tagged YFP-CFTR was engineered to enable simultaneous assessment of total channel expression and surface density using flow cytometry, and probed the impact of six distinct mutations previously categorized as Class II (F508del, R560T, N1303K) or Class VI (Q1412X, 4279insA, 4326delTC) mutations, respectively (FIG. 3A). All six mutations markedly impaired channel surface density compared to WT CFTR (FIG. 3B, black bars). […] We utilized a second enDUB (enDUB-U21) that comprises the catalytic component of ubiquitin-specific protease USP21 (FIG. 3A), which removes all ubiquitin linkage types (Faesen et al. 2011).
Cell surface and total ion channel pools were assayed by flow cytometry in live, transfected HEK293 cells as previously described (Kanner et al. 2017; Kanner et al. 2018). Briefly, 48 hrs post-transfection, cells cultured in 12-well plates gently washed with ice cold PBS containing Ca^2+ and Mg^2+ (in mM: 0.9 CaCl2, 0.49 MgCl2, pH 7.4), and then incubated for 30 min in blocking medium (DMEM with 3% BSA) at 4° C. HEK293 cells were then incubated with 1 µM Alexa Fluor 647 conjugated α-bungarotoxin (BTX647; Life Technologies) in DMEM/3% BSA on a rocker at 4° C. for 1 hr, followed by washing three times with PBS (containing Ca^2+ and Mg^2+ ). […]

[4] = biological target: T1, full-length CFTR (Homo sapiens, UniProt P13569); assay: Flow cytometric FRET binding assay in HEK293 cells; details: Cerulean-nanobody donor, Venus-CFTR acceptor
T1 construct: expressed in transfected cells; host or cells: HEK293
T1 sequence (P13569 whole entry): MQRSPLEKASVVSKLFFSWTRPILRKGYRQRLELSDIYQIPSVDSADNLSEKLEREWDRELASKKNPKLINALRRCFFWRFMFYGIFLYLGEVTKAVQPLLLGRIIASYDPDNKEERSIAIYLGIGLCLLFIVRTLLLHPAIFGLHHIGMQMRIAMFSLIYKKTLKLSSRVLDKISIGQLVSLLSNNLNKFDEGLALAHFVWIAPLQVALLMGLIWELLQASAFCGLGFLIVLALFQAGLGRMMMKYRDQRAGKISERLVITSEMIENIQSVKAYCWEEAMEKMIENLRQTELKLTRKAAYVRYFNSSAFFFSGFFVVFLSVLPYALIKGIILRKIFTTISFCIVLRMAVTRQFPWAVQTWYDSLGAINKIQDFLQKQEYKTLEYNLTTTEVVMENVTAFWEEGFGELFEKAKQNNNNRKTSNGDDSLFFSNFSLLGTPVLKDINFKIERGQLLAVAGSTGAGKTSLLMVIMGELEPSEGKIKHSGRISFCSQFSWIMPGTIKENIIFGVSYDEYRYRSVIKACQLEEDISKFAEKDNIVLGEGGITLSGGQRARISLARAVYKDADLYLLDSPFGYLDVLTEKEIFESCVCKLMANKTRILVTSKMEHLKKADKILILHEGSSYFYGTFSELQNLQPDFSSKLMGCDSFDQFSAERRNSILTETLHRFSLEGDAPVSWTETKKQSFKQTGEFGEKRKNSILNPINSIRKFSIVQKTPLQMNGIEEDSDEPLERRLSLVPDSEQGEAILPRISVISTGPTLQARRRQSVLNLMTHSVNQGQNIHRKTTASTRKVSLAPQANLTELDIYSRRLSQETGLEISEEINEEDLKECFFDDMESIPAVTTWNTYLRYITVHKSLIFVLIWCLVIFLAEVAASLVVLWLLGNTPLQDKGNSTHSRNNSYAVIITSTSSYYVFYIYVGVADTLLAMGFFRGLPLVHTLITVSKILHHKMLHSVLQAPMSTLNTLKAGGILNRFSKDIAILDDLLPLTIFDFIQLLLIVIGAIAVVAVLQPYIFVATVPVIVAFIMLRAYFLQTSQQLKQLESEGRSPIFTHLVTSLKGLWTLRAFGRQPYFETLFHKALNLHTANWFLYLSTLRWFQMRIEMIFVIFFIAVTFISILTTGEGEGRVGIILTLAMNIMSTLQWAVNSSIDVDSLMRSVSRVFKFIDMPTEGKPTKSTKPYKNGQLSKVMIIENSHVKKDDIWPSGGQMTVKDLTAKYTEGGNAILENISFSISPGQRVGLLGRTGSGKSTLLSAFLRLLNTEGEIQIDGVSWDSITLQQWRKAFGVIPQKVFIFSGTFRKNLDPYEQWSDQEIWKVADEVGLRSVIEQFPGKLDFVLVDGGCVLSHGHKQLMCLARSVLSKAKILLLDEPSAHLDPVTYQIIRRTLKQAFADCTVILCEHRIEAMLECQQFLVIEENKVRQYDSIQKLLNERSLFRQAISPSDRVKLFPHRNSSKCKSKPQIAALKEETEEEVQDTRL
Source text: (§1) While GFP-targeted enDUBs provided critical proof-of-concept efficacy for the targeted deubiquitination approach in rescuing different trafficking-deficient recombinant mutant channels, a key next step was to develop nanobodies towards CFTR itself to enable targeting of endogenous channels. Accordingly, we used purified CFTR NBD1 domain (FIG. 4A) as bait to identify binders using a yeast nanobody library surface display approach (McMahon et al. 2018) (FIG. 4B). After several rounds of magnetic-activated cell sorting (MACS) and fluorescence-activated cell sorting (FACS) selection we isolated 14 unique nanobody binders with a range of affinities for NBD1 as reported by an on-yeast binding assay (FIG. 12A; Table 1). […] Binding of nb.E3h to full-length CFTR in cells was confirmed by a flow cytometric fluorescence resonance energy transfer (flow-FRET) assay (FIG. 4C).
FRET binding assays were performed via flow cytometry in live, transfected HEK293 cells as previously described (Lee et al. 2016). […] Cerulean (Cer), Venus (Ven), and FRET signals were analyzed using the following laser / filter set configurations: BV421 (Ex: 405 nm, Em: 450/50), FITC (Ex: 488 nm, Em: 525/50), and BV520 (Ex: 405 nm, Em: 525/50), respectively. […]

[5] = test system: CFTR; assay: YFP halide quenching assay in HEK293 cells; format: cell-based, human; details: HEK293, pilot screen of nanobodies
Source text: as §1
Target sequence in this assay (P13569 387-646 limits assumed): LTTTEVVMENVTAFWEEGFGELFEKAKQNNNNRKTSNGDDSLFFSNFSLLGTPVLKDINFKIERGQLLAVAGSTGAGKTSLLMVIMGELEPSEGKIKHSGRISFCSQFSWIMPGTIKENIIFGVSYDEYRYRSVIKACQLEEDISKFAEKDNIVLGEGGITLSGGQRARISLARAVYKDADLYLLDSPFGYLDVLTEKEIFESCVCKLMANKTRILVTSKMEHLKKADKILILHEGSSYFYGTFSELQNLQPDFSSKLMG
A YFP halide quenching plate-reader assay was adapted from previous work (Galietta et al. 2001). […] Baseline YFP readings (Ex: 510 nm, Em: 538 nm) were taken using a SpectraMax M5 plate-reader (Molecular Devices). An equal amount of 2× activation solution, containing iodide, was added to obtain a final concentration (70 mM Nal, 10 µM forskolin, 5 µM VX770), and a time series recording YFP fluorescence was taken every 2 s. […]

## COc1ccc(-c2csc(NC(=O)[C@H]3CCCCN3S(=O)(=O)c3ccc(C)cc3)n2)cc1 [ML277, (R)-N-(4-(4-methoxyphenyl)thiazol-2-yl)-1-tosylpiperidine-2-carboxamide]
[1]; R591H + enDUB-O1, ML277 1 µM
  enDUB-O1-rescued R591H current amplitude: markedly increased enDUB-O1-rescued R591H current amplitude to beyond WT KCNQ1 levels
[1]; R591H + nano, 1 µM
  R591H KCNQ1 currents: modestly increased R591H currents

## CC(C)(C)c1cc(C(C)(C)C)c(NC(=O)c2c[nH]c3ccccc3c2=O)cc1O [ivacaftor]
[2]; enDUB-U21 co-expression + lumacaftor, ivacaftor 5 µM
  Forskolin-stimulated 4326delTC or N1303K currents after ivacaftor: further enhanced
[2]; nano-expressing HEK293 cells, lumacaftor pre-incubation, ivacaftor 5 µM
  Forskolin-induced 4326delTC and N1303K currents after ivacaftor: further elevated

## Cc1ccc(NC(=O)C2(c3ccc4c(c3)OC(F)(F)O4)CC2)nc1-c1cccc(C(=O)O)c1 [lumacaftor]
[2]; nano-expressing HEK293 cells, lumacaftor pre-incubation
  Forskolin-induced 4326delTC and N1303K currents: relatively small
[3]; lumacaftor 24 hrs pre-incubation or enDUB co-expression
  F508del and R560T CFTR surface expression: did not increase F508del and R560T surface expression
[3]; lumacaftor 24 hrs pre-incubation or enDUB co-expression (enDUB compared to lumacaftor)
  Surface trafficking of the other four CFTR mutations (N1303K, Q1412X, 4279insA, 4326delTC): improved trafficking of the remaining 4 mutations

B1: nb.E3h: CFTR (NBD1) target nanobody clone, SEQ ID No: 25 (protein)
VHH: QVQLQESGGGLVQAGGSLRLSCAASGTISGSGSMGWYRQAPGKEREFVAAINVGSNTYYADSVKGRFTISRDNAKNTVYLQMNSLKPEDTAVYYCAVRFGYYYRHTYWGQGTQVTVSS
modifications: nanobody
[2]; HEK293
  Performance in patch clamp assay when converted to an enDUB: superior performance
[4]
  Binding to full-length CFTR in cells (flow-FRET): confirmed
[5]
  Performance in halide sensor assay when converted to an enDUB: superior performance
